Measured values reported in PubChem BioAssay (NCI).
In brackets after ≈: the same amount, converted by molar mass. Several values for one entry are separate records, joined by “and”; a condition that tells them apart may be missing. Equal values may be shown once.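 How tested: cells in 96-well plates exposed to compound for 48 hours at five concentrations. Abbreviation: GI50, concentration required for 50% inhibition of growth. TGI denotes the concentration required for complete inhibition of growth.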

Legend:
Experiment in all cases: NCI-60 cell line screen, 48 h
A549 NSCLC = system: A549 NSCLC
HL-60(TB) leukemia = system: HL-60(TB) leukemia
PC-3 prostate = system: PC-3 prostate
UACC-62 melanoma = system: UACC-62 melanoma
MDA-MB-231 breast = system: MDA-MB-231 breast
SF-268 CNS = system: SF-268 CNS
SN12C renal = system: SN12C renal
COLO 205 colon = system: COLO 205 colon
SF-295 CNS = system: SF-295 CNS
UACC-257 melanoma = system: UACC-257 melanoma
HCT-116 colon = system: HCT-116 colon
HOP-92 NSCLC = system: HOP-92 NSCLC
UO-31 renal = system: UO-31 renal
NCI-H522 lung = system: NCI-H522 lung
SW-620 colon = system: SW-620 colon
M14 melanoma = system: M14 melanoma
SNB-75 CNS = system: SNB-75 CNS
U251 CNS = system: U251 CNS
HCT-15 colon = system: HCT-15 colon
TK-10 renal = system: TK-10 renal
HS 578T breast = system: HS 578T breast
OVCAR-3 ovarian = system: OVCAR-3 ovarian
ACHN renal = system: ACHN renal
T-47D breast = system: T-47D breast
NCI/ADR-RES ovarian = system: NCI/ADR-RES ovarian
DU-145 prostate = system: DU-145 prostate
LOX IMVI melanoma = system: LOX IMVI melanoma
K-562 leukemia = system: K-562 leukemia
NCI-H460 lung = system: NCI-H460 lung
OVCAR-5 ovarian = system: OVCAR-5 ovarian
786-0 renal = system: 786-0 renal
SNB-19 CNS = system: SNB-19 CNS
NCI-H23 lung = system: NCI-H23 lung
HCC-2998 colon = system: HCC-2998 colon
SF-539 CNS = system: SF-539 CNS
IGROV1 ovarian = system: IGROV1 ovarian
EKVX NSCLC = system: EKVX NSCLC
HOP-62 NSCLC = system: HOP-62 NSCLC
CCRF-CEM leukemia = system: CCRF-CEM leukemia
RXF 393 renal = system: RXF 393 renal
OVCAR-8 ovarian = system: OVCAR-8 ovarian
HT29 colon = system: HT29 colon
SK-MEL-28 melanoma = system: SK-MEL-28 melanoma
SK-MEL-2 melanoma = system: SK-MEL-2 melanoma
CAKI-1 renal = system: CAKI-1 renal
SK-OV-3 ovarian = system: SK-OV-3 ovarian
OVCAR-4 ovarian = system: OVCAR-4 ovarian
MCF7 breast = system: MCF7 breast
SR leukemia = system: SR leukemia
RPMI-8226 leukemia = system: RPMI-8226 leukemia
KM12 colon = system: KM12 colon
MOLT-4 leukemia = system: MOLT-4 leukemia
NCI-H226 lung = system: NCI-H226 lung
MALME-3M melanoma = system: MALME-3M melanoma
SK-MEL-5 melanoma = system: SK-MEL-5 melanoma
BT-549 breast = system: BT-549 breast
MDA-MB-435 = system: MDA-MB-435
A498 renal = system: A498 renal

## CCCCCCCCCCCCCCCC[n+]1ccccc1
A549 NSCLC
  GI50: 468 nM and 1210 nM
  TGI: 1860 nM and 2950 nM
HL-60(TB) leukemia
  GI50: 326 nM
  TGI: 1210 nM
PC-3 prostate
  GI50: 243 nM and 244 nM
  TGI: 846 nM and 692 nM
UACC-62 melanoma
  GI50: 565 nM
  TGI: 2150 nM
MDA-MB-231 breast
  GI50: 440 nM and 805 nM
  TGI: 1740 nM and 2700 nM
SF-268 CNS
  GI50: 452 nM and 861 nM
  TGI: 1710 nM and 2570 nM
SN12C renal
  GI50: 563 nM
  TGI: 1900 nM
COLO 205 colon
  GI50: 255 nM and 495 nM
  TGI: 702 nM and 1850 nM
SF-295 CNS
  GI50: 311 nM
  TGI: 1420 nM
UACC-257 melanoma
  GI50: 534 nM and 1560 nM
  TGI: 1950 nM and 4670 nM
HCT-116 colon
  GI50: 321 nM
  TGI: 1310 nM
HOP-92 NSCLC
  GI50: 210 nM and 335 nM
  TGI: 753 nM and 1400 nM
UO-31 renal
  GI50: 795 nM and 1160 nM
  TGI: 2330 nM and 2850 nM
NCI-H522 lung
  GI50: 226 nM
  TGI: 947 nM
SW-620 colon
  GI50: 391 nM and 488 nM
  TGI: 1570 nM and 1940 nM
M14 melanoma
  GI50: 280 nM
  TGI: 1040 nM
SNB-75 CNS
  GI50: 528 nM and 609 nM
  TGI: 1720 nM and 2780 nM
U251 CNS
  GI50: 326 nM and 535 nM
  TGI: 1360 nM and 1920 nM
HCT-15 colon
  GI50: 1100 nM and 1090 nM
  TGI: 2640 nM and 3610 nM
TK-10 renal
  GI50: 207 nM and 432 nM
  TGI: 518 nM and 1660 nM
HS 578T breast
  GI50: 1460 nM and 1670 nM
  TGI: 4640 nM and 4840 nM
OVCAR-3 ovarian
  GI50: 366 nM
  TGI: 1500 nM
ACHN renal
  GI50: 733 nM and 909 nM
  TGI: 2160 nM and 4490 nM
T-47D breast
  GI50: 500 nM and 445 nM
  TGI: 3420 nM and 3910 nM
NCI/ADR-RES ovarian
  GI50: 2560 nM and 4380 nM
  TGI: 15100 nM and 27000 nM
DU-145 prostate
  GI50: 717 nM and 938 nM
  TGI: 1990 nM and 2310 nM
LOX IMVI melanoma
  GI50: 242 nM
  TGI: 1090 nM
K-562 leukemia
  GI50: 278 nM
  TGI: 1640 nM
NCI-H460 lung
  GI50: 388 nM and 553 nM
  TGI: 1500 nM and 1940 nM
OVCAR-5 ovarian
  GI50: 494 nM and 842 nM
  TGI: 1860 nM and 2930 nM
786-0 renal
  GI50: 548 nM
  TGI: 1910 nM
SNB-19 CNS
  GI50: 559 nM
  TGI: 1900 nM
NCI-H23 lung
  GI50: 295 nM
  TGI: 1430 nM
HCC-2998 colon
  GI50: 339 nM and 363 nM
  TGI: 1430 nM and 1680 nM
SF-539 CNS
  GI50: 950 nM
  TGI: 2350 nM
IGROV1 ovarian
  GI50: 384 nM
  TGI: 1900 nM
EKVX NSCLC
  GI50: 453 nM
  TGI: 2090 nM
HOP-62 NSCLC
  GI50: 1050 nM and 482 nM
  TGI: 2350 nM and 1900 nM
CCRF-CEM leukemia
  GI50: 281 nM
  TGI: 1330 nM
RXF 393 renal
  GI50: 224 nM
  TGI: 688 nM
OVCAR-8 ovarian
  GI50: 331 nM and 704 nM
  TGI: 1280 nM and 3070 nM
HT29 colon
  GI50: 199 nM and 250 nM
  TGI: 765 nM and 1260 nM
SK-MEL-28 melanoma
  GI50: 1250 nM
  TGI: 2560 nM
SK-MEL-2 melanoma
  GI50: 468 nM
  TGI: 1760 nM
CAKI-1 renal
  GI50: 616 nM and 1130 nM
  TGI: 3380 nM and 10200 nM
SK-OV-3 ovarian
  GI50: 1030 nM and 692 nM
  TGI: 2500 nM and 2720 nM
OVCAR-4 ovarian
  GI50: 570 nM
  TGI: 3290 nM

## CC(C)Cc1ccc(C(C)C(=O)O)cc1 (stereo not given)
NCI-H23 lung
  TGI: > 100000 nM

## O=C(O)c1cc2ccccc2c(N=Nc2ccc(S(=O)(=O)Nc3ncccn3)cc2)c1O
A549 NSCLC
  TGI: > 100000 nM
HL-60(TB) leukemia
  TGI: > 100000 nM
PC-3 prostate
  TGI: > 100000 nM
UACC-62 melanoma
  TGI: > 100000 nM
MDA-MB-231 breast
  TGI: > 100000 nM
SF-268 CNS
  TGI: > 100000 nM
COLO 205 colon
  TGI: > 100000 nM
MCF7 breast
  TGI: > 100000 nM
SF-295 CNS
  TGI: > 100000 nM
UACC-257 melanoma
  TGI: > 100000 nM
SR leukemia
  TGI: > 100000 nM
HCT-116 colon
  TGI: > 100000 nM
HOP-92 NSCLC
  TGI: > 100000 nM
UO-31 renal
  TGI: > 100000 nM
NCI-H522 lung
  TGI: > 100000 nM
SW-620 colon
  TGI: > 100000 nM
M14 melanoma
  TGI: > 100000 nM
RPMI-8226 leukemia
  TGI: > 100000 nM
SNB-75 CNS
  TGI: > 100000 nM
KM12 colon
  TGI: > 100000 nM
U251 CNS
  TGI: > 100000 nM
HCT-15 colon
  TGI: > 100000 nM
TK-10 renal
  TGI: > 100000 nM
HS 578T breast
  TGI: > 100000 nM
OVCAR-3 ovarian
  TGI: > 100000 nM
ACHN renal
  TGI: > 100000 nM
MOLT-4 leukemia
  TGI: > 100000 nM
NCI-H226 lung
  TGI: > 100000 nM
NCI/ADR-RES ovarian
  TGI: > 100000 nM
MALME-3M melanoma
  TGI: > 100000 nM
K-562 leukemia
  TGI: > 100000 nM
NCI-H460 lung
  TGI: > 100000 nM
OVCAR-5 ovarian
  TGI: > 100000 nM
786-0 renal
  TGI: > 100000 nM
SNB-19 CNS
  TGI: > 100000 nM
HCC-2998 colon
  TGI: > 100000 nM
SF-539 CNS
  TGI: > 100000 nM
IGROV1 ovarian
  TGI: > 100000 nM
EKVX NSCLC
  TGI: > 100000 nM
HOP-62 NSCLC
  TGI: > 100000 nM
CCRF-CEM leukemia
  TGI: > 100000 nM
RXF 393 renal
  TGI: > 100000 nM
OVCAR-8 ovarian
  TGI: > 100000 nM
HT29 colon
  TGI: > 100000 nM
SK-MEL-28 melanoma
  TGI: > 100000 nM
SK-MEL-2 melanoma
  TGI: > 100000 nM
CAKI-1 renal
  TGI: > 100000 nM
SK-OV-3 ovarian
  TGI: > 100000 nM
SK-MEL-5 melanoma
  TGI: > 100000 nM
BT-549 breast
  TGI: > 100000 nM
OVCAR-4 ovarian
  TGI: > 100000 nM
MDA-MB-435
  TGI: > 100000 nM

## Nc1nccc2c([N+](=O)[O-])cccc12
HL-60(TB) leukemia
  GI50: 78.3 µg/mL
MDA-MB-231 breast
  GI50: 92 µg/mL
SN12C renal
  GI50: 92.9 µg/mL
SR leukemia
  GI50: 25.7 µg/mL (≈ 136 µM)
HCT-116 colon
  GI50: 84.3 µg/mL
A498 renal
  GI50: 31.7 µg/mL (≈ 168 µM)
HOP-92 NSCLC
  GI50: 21.4 µg/mL
UO-31 renal
  GI50: 53.4 µg/mL
RPMI-8226 leukemia
  GI50: 40.4 µg/mL (≈ 213 µM)
SNB-75 CNS
  GI50: 55.3 µg/mL
HS 578T breast
  GI50: 52 µg/mL
T-47D breast
  GI50: 77.1 µg/mL
NCI-H226 lung
  GI50: 87.4 µg/mL (≈ 462 µM)
IGROV1 ovarian
  GI50: 86.3 µg/mL
EKVX NSCLC
  GI50: 5.93 µg/mL
  TGI: 48.8 µg/mL
HOP-62 NSCLC
  GI50: 61.5 µg/mL
RXF 393 renal
  GI50: 87.4 µg/mL
